Source: patent publication US4383113A, “Agricultural sulfonamides” (E. I. Du Pont de Nemours and Company, priority 1981, dated 1983)

Columns and labels:
[1] = test system: sorghum; assay: Test A pre-emergence; type: in vivo; parameters: key: 0 = no effect, 10 = maximum effect; letter = response symbol
Outline: (§1)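 Seeds and tubers were treated preemergence in a growth medium with compound in a nonphytotoxic solvent, against untreated controls; emerged plants such as two-leaf barnyardgrass and five-leaf cotton were sprayed postemergence, against solvent-sprayed controls. After sixteen days in a greenhouse, response was rated visually from 0 to 10.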

[2] = test system: wheat; assay: Test A pre-emergence; type: in vivo; parameters: key: 0 = no effect, 10 = maximum effect; letter = response symbol; details: 0.4 kg/ha
Outline: as §1

[3] = test system: soybean; assay: Test A pre-emergence; type: in vivo; parameters: key: 0 = no effect, 10 = maximum effect; letter = response symbol
Outline: as §1

[4] = test system: corn; assay: Test A pre-emergence; type: in vivo; parameters: key: 0 = no effect, 10 = maximum effect; letter = response symbol
Outline: as §1

[5] = test system: rice; assay: Test A pre-emergence; type: in vivo; parameters: key: 0 = no effect, 10 = maximum effect; letter = response symbol; details: 0.4 kg/ha
Outline: as §1

[6] = test system: cocklebur; assay: Test A pre-emergence; type: in vivo, Xanthium spp.; parameters: key: 0 = no effect, 10 = maximum effect; letter = response symbol
Outline: as §1

[7] = test system: morningglory; assay: Test A pre-emergence; type: in vivo, Ipomoea spp.; parameters: key: 0 = no effect, 10 = maximum effect; letter = response symbol
Outline: as §1

[8] = test system: cassia; assay: Test A pre-emergence; type: in vivo, Cassia tora; parameters: key: 0 = no effect, 10 = maximum effect; letter = response symbol; details: 0.4 kg/ha
Outline: as §1

[9] = test system: nutsedge; assay: Test A pre-emergence; type: in vivo, Cyperus rotundus
Description: (§2) The activity of these compounds was discovered in a number of greenhouse and field tests. The ratings are based on a numerical scale extending from 0=no effect, to 10=maximum effect. The accompanying descriptive symbols have the following meanings:
(§3) Seeds of crabgrass (Digitaria spp.), barnyardgrass (Echinochloa crusgalli), wild oats (Avena fatua), cassia (Cassia tora), morningglory (Ipomoea spp.), cocklebur (Xanthium spp.), sorghum, corn, soybean, rice, wheat and nutsedge tubers (Cyperus rotundus) were planted in a growth medium and treated preemergence with a nonphytotoxic solvent solution of the compounds of Table XII. Other batches of seeds and tubers for all of the foregoing weed and crop plants were planted at the same time as controls. The control plantings were untreated; i.e., neither any compound nor any solvent was applied. At the same time, cotton having five leaves (including cotyledonary ones), bush beans with the third trifoliate leaf expanding, crabgrass with two leaves, barnyardgrass with two leaves, wild oats with two leaves, cassia with three leaves (including cotyledonary ones), morningglory with four leaves (including the cotyledonary ones), cocklebur with four leaves (including the cotyledonary ones), sorghum with four leaves, corn with four leaves, soybean with two cotyledonary leaves, rice with three leaves, wheat with one leaf, and nutsedge with three-five leaves were sprayed with a nonphytotoxic solvent solution of the compounds of Table XII. Other groups of all the same weed and crop plants were sprayed with the same nonphytotoxic solvent so as to provide control plants. Preemergence and postemergence treated plants and controls were maintained in a greenhouse for sixteen days, then all treated plants were compared with their respective controls and rated visually for response to treatment.

[10] = test system: crabgrass; assay: Test A pre-emergence; type: in vivo, Digitaria spp.; parameters: key: 0 = no effect, 10 = maximum effect; letter = response symbol
Description: as §2, §3

[11] = test system: barnyardgrass; assay: Test A pre-emergence; type: in vivo, Echinochloa crusgalli; parameters: key: 0 = no effect, 10 = maximum effect; letter = response symbol; details: 0.4 kg/ha
Outline: as §1

[12] = test system: wild oats; assay: Test A pre-emergence; type: in vivo, Avena fatua; parameters: key: 0 = no effect, 10 = maximum effect; letter = response symbol; details: 0.4 kg/ha
Outline: as §1

[13] = test system: bush bean; assay: Test A post-emergence; type: in vivo, bush beans
[14] = test system: crabgrass; assay: Test A post-emergence; type: in vivo, Digitaria spp.
Outline: as §1

[15] = test system: nutsedge; assay: Test A post-emergence; type: in vivo, Cyperus rotundus
Outline: as §1

[16] = test system: wild oats; assay: Test A post-emergence; type: in vivo, Avena fatua
Outline: as §1

[17] = test system: sorghum; assay: Test A post-emergence; type: in vivo
Outline: as §1

[18] = test system: cotton; assay: Test A post-emergence; type: in vivo
Outline: as §1

[19] = test system: wheat; assay: Test A post-emergence; type: in vivo
Outline: as §1

[20] = test system: soybean; assay: Test A post-emergence; type: in vivo
Outline: as §1

[21] = test system: corn; assay: Test A post-emergence; type: in vivo
Outline: as §1

[22] = test system: rice; assay: Test A post-emergence; type: in vivo
Outline: as §1

[23] = test system: barnyardgrass; assay: Test A post-emergence; type: in vivo, Echinochloa crusgalli
Outline: as §1

[24] = test system: cassia; assay: Test A post-emergence; type: in vivo, Cassia tora; parameters: key: 0 = no effect, 10 = maximum effect; letter = response symbol
Outline: as §1

[25] = test system: cocklebur; assay: Test A post-emergence; type: in vivo, Xanthium spp.
Outline: as §1

[26] = test system: morningglory; assay: Test A post-emergence; type: in vivo, Ipomoea spp.
Outline: as §1

Compound: COc1nc(C)nc(NC(=O)NS(=O)(=O)c2ccccc2C(=O)OC(C)CCl)n1 (stereo not shown) [drawing 526]
- response rating ([1]; 0.4 kg/ha): 9H
- response rating [2]: 4G
- response rating ([3]; 0.4 kg/ha): 9H
- response rating ([4]; 0.4 kg/ha): 9G
- response rating [5]: 9H
- response rating ([6]; 0.4 kg/ha): 9G
- response rating ([7]; 0.4 kg/ha): 9G
- response rating [8]: 8G

Compound: COc1cc(C)nc(NC(=O)NS(=O)(=O)c2ccccc2C(=O)CCC(C)C)n1 [drawing 516]
- response rating ([1]; 0.4 kg/ha): 9H
- response rating [2]: 9G
- response rating ([3]; 0.4 kg/ha): 8H
- response rating ([4]; 0.4 kg/ha): 9G
- response rating ([9]; 0.4 kg/ha): 9G
- response rating ([6]; 0.4 kg/ha): 9G
- response rating ([7]; 0.4 kg/ha): 9G
- response rating [8]: 9G

Compound: Cc1cc(C)nc(NC(=O)NS(=O)(=O)c2ccccc2C(=O)O)n1 [drawing 511]
- response rating ([1]; 10 kg/ha): 5G
- response rating ([3]; 10 kg/ha): 4G
- response rating ([4]; 10 kg/ha): 8
- response rating ([9]; 10 kg/ha): 9G
- response rating ([6]; 10 kg/ha): 9G
- response rating ([10]; 10 kg/ha): 1C
- response rating ([7]; 10 kg/ha): 7G

Compound: CCCCCCOC(=O)c1ccccc1S(=O)(=O)NC(=O)Nc1nc(C)cc(COC)n1 [drawing 538]
- response rating ([1]; 0.4 kg/ha): 3G
- response rating [2]: 0
- response rating ([3]; 0.4 kg/ha): 0
- response rating [5]: 8H
- response rating ([6]; 0.4 kg/ha): 0
- response rating [11]: 2G
- response rating [12]: 0
- response rating ([10]; 0.4 kg/ha): 0
- response rating ([7]; 0.4 kg/ha): 0
- response rating [8]: 0

Compound: CCCCCCCCCCCCNC(=O)c1ccccc1S(=O)(=O)NC(=O)Nc1nc(C)nc(OC)n1 [drawing 534]
- response rating [2]: 6G
- response rating ([4]; 0.4 kg/ha): 8G
- response rating [5]: 9H
- response rating ([6]; 0.4 kg/ha): 8G
- response rating [11]: 9H
- response rating [12]: 6G
- response rating ([7]; 0.4 kg/ha): 9G
- response rating [8]: 8G

Compound: COc1nc(C)nc(NC(=O)NS(=O)(=O)c2ccccc2C(=O)Oc2ccccc2C)n1
- response rating ([3]; 0.4 kg/ha): 9H
- response rating ([9]; 0.4 kg/ha): 8G
- response rating ([6]; 0.4 kg/ha): 9G
- response rating [11]: 9H
- response rating ([7]; 0.4 kg/ha): 9G
- response rating [8]: 9G

Compound: C=CCCC(C)OC(=O)c1ccccc1S(=O)(=O)NC(=O)Nc1nc(C)nc(OC)n1 (stereo not shown) [drawing 522]
- response rating ([1]; 0.4 kg/ha): 9H
- response rating [2]: 7G
- response rating ([3]; 0.4 kg/ha): 9H
- response rating ([9]; 0.4 kg/ha): 9G
- response rating ([6]; 0.4 kg/ha): 9G
- response rating ([7]; 0.4 kg/ha): 9G
- response rating [8]: 9G

Compound: COC(=O)c1ccccc1S(=O)(=O)NC(=O)Nc1nc(C)cc(C)n1 [drawing 412]
- response rating ([13]; 0.4 kg/ha): 9C
- response rating ([13]; 2 kg/ha): 9C
- response rating ([14]; 0.4 kg/ha): 9C
- response rating ([14]; 2 kg/ha): 9C
- response rating ([15]; 0.4 kg/ha): 9C
- response rating ([15]; 2 kg/ha): 9C
- response rating ([16]; 0.4 kg/ha): 9C
- response rating ([16]; 2 kg/ha): 9C
- response rating ([17]; 0.4 kg/ha): 9C
- response rating ([17]; 2 kg/ha): 10C
- response rating ([18]; 0.4 kg/ha): 9C
- response rating ([18]; 2 kg/ha): 9C
- response rating ([19]; 0.4 kg/ha): 9C
- response rating ([19]; 2 kg/ha): 9C
- response rating ([20]; 0.4 kg/ha): 9C
- response rating ([20]; 2 kg/ha): 6C
- response rating ([21]; 0.4 kg/ha): 9C
- response rating ([21]; 2 kg/ha): 9C
- response rating ([22]; 0.4 kg/ha): 10C
- response rating ([22]; 2 kg/ha): 10C
- response rating ([23]; 0.4 kg/ha): 10C
- response rating ([23]; 2 kg/ha): 10C
- response rating ([24]; 0.4 kg/ha): 9C
- response rating ([24]; 2 kg/ha): 9C
- response rating ([25]; 0.4 kg/ha): 10C
- response rating ([25]; 2 kg/ha): 9C
- response rating ([26]; 0.4 kg/ha): 10C
- response rating ([26]; 2 kg/ha): 10C
